PubChem BioAssay AID248 (DTP/NCI, 2004)
Inconclusive results and toxic doses are left out. Rule as the data show it: active = T/C of 150% or more; inactive = T/C below 125%.

System: L1210 leukemia ip in BDF1 mice, survival T/C
Test: NCI In Vivo Anticancer Drug Screen. Data for tumor model L1210 Leukemia (intraperitoneal) in B6D2F1 (BDF1) mice
Settings: endpoint: mean survival time, higher = longer survival
How it was run: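 In this screen, tumor-bearing mice given compound are compared to those given vehicle, and their survival values are reported as a treated-to-control quotient.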

[1] = dose: 100.0 mg/kg/injection, schedule: Q01DX009 (ip), vehicle: Klucel (hydroxypropylcellulose) (HPC)
[2] = dose: 100.0 mg/kg/injection, schedule: Q01DX001 (ip), vehicle: saline
[3] = dose: 200.0 mg/kg/injection, schedule: Q01DX001 (ip), vehicle: saline
[4] = dose: 100.0 mg/kg/injection, schedule: Q04DX003 (ip), vehicle: Klucel (hydroxypropylcellulose) (HPC)
[5] = dose: 200.0 mg/kg/injection, schedule: Q04DX003 (ip), vehicle: Klucel (hydroxypropylcellulose) (HPC)
[6] = dose: 100.0 mg/kg/injection, schedule: Q01DX009 (ip), vehicle: saline with Tween-80
[7] = dose: 400.0 mg/kg/injection, schedule: Q01DX001 (ip), vehicle: saline

Measured: T/C

O=C(CCCN1CCC2(CC1)OC(=O)N(c1ccc(F)cc1)C2=O)c1cccs1
inactive: dose: 50.0 mg/kg/injection, schedule: Q01DX001 (ip), vehicle: Klucel (hydroxypropylcellulose) (HPC) 94 % of control | dose: 100.0 mg/kg/injection, schedule: Q01DX001 (ip), vehicle: Klucel (hydroxypropylcellulose) (HPC) 91 % of control | dose: 200.0 mg/kg/injection, schedule: Q01DX001 (ip), vehicle: Klucel (hydroxypropylcellulose) (HPC) 88 % of control

O=C(Nc1ccccc1C(=O)N/N=C/c1ccc(Cl)cc1Cl)c1ccccc1Cl
inactive: [1] 90 % of control | dose: 200.0 mg/kg/injection, schedule: Q01DX009 (ip), vehicle: Klucel (hydroxypropylcellulose) (HPC) 97 % of control | dose: 400.0 mg/kg/injection, schedule: Q01DX009 (ip), vehicle: Klucel (hydroxypropylcellulose) (HPC) 86 % of control

Nc1ccn(C2OC(COP(=O)(O)Oc3ccccc3)C(O)C2O)c(=O)n1 (stereo not drawn)
inactive: dose: 75.0 mg/kg/injection, schedule: Q01DX001 (ip), vehicle: saline 109 % of control | dose: 150.0 mg/kg/injection, schedule: Q01DX001 (ip), vehicle: saline 113 % of control

COc1ccc(S(=O)(=O)N=[N+]=[N-])cc1
inactive: [2] 103 % of control | [3] 95 % of control

CCCCOC(=O)c1ccc(OCCOc2ccc(C(C)(C)CC(C)(C)C)cc2)c(NC(=O)CC(=O)c2cccc(N)c2)c1
inactive: dose: 100.0 mg/kg/injection, schedule: Q01DX009 (ip), vehicle: saline sonified 97 % of control | [4] 96 % of control | dose: 200.0 mg/kg/injection, schedule: Q01DX009 (ip), vehicle: saline sonified 91 % of control | [5] 93 % of control | dose: 400.0 mg/kg/injection, schedule: Q01DX009 (ip), vehicle: saline sonified 103 % of control | dose: 400.0 mg/kg/injection, schedule: Q04DX003 (ip), vehicle: Klucel (hydroxypropylcellulose) (HPC) 88 % of control

NC(=O)N/N=C/c1ccccc1N
inactive: [6] 94 % of control | dose: 200.0 mg/kg/injection, schedule: Q01DX009 (ip), vehicle: saline with Tween-80 94 % of control | dose: 400.0 mg/kg/injection, schedule: Q01DX009 (ip), vehicle: saline with Tween-80 96 % of control

CCN(CC)C(=S)[S][Sn]([Cl])([c]1ccccc1)[c]1ccccc1
inactive: dose: 5.0 mg/kg/injection, schedule: Q01DX001 (ip), vehicle: other 102 % of control | dose: 10.0 mg/kg/injection, schedule: Q01DX001 (ip), vehicle: other 104 % of control | dose: 20.0 mg/kg/injection, schedule: Q01DX001 (ip), vehicle: other 102 % of control | dose: 40.0 mg/kg/injection, schedule: Q01DX001 (ip), vehicle: other 102 % of control | dose: 80.0 mg/kg/injection, schedule: Q01DX001 (ip), vehicle: other 104 % of control

CCP(c1ccccc1)c1ccccc1
inactive: dose: 75.0 mg/kg/injection, schedule: Q01DX009 (ip), vehicle: saline sonified 101 % of control | dose: 100.0 mg/kg/injection, schedule: Q01DX001 (ip), vehicle: saline sonified 92 % of control | dose: 150.0 mg/kg/injection, schedule: Q01DX009 (ip), vehicle: saline sonified 94 % of control | dose: 200.0 mg/kg/injection, schedule: Q01DX001 (ip), vehicle: saline sonified 97 % of control | dose: 300.0 mg/kg/injection, schedule: Q01DX009 (ip), vehicle: saline sonified 106 % of control | dose: 400.0 mg/kg/injection, schedule: Q01DX001 (ip), vehicle: saline sonified 103 % of control

O=C1OC(/C=C/c2ccccc2)=NC/1=C\c1ccc(Cl)cc1
inactive: dose: 100.0 mg/kg/injection, schedule: Q01DX009 (ip), vehicle: saline 105 % of control | dose: 200.0 mg/kg/injection, schedule: Q01DX009 (ip), vehicle: saline 105 % of control | dose: 400.0 mg/kg/injection, schedule: Q01DX009 (ip), vehicle: saline 94 % of control

COC(=O)c1cc(C)ccc1C
inactive: [2] 101 % of control | [3] 98 % of control | [7] 101 % of control

O=C(Cc1ccc2ccccc2c1)c1c[nH]c2ccccc12
inactive: dose: 50.0 mg/kg/injection, schedule: Q01DX001 (ip), vehicle: saline 102 % of control | [2] 102 % of control | [3] 98 % of control | [7] 93 % of control

O=C1C=CCCCC1
inactive: dose: 25.0 mg/kg/injection, schedule: Q01DX009 (ip), vehicle: saline with Tween-80 95 % of control | dose: 50.0 mg/kg/injection, schedule: Q01DX009 (ip), vehicle: saline with Tween-80 101 % of control | [6] 103 % of control | dose: 100.0 mg/kg/injection, schedule: Q04DX003 (ip), vehicle: saline with Tween-80 103 % of control

CN(C)CCC(O)(Cc1ccccc1)c1ccccc1 (stereo not drawn)
inactive: dose: 50.0 mg/kg/injection, schedule: Q01DX009 (ip), vehicle: Klucel (hydroxypropylcellulose) (HPC) 95 % of control | [1] 101 % of control | [4] 95 % of control | [5] 101 % of control

O=C1OC(c2ccc([N+](=O)[O-])cc2)=N/C1=C\c1cccc2ccccc12
inactive: dose: 100.0 mg/kg/injection, schedule: Q01DX009 (ip), vehicle: other 96 % of control | dose: 200.0 mg/kg/injection, schedule: Q01DX009 (ip), vehicle: other 88 % of control | dose: 400.0 mg/kg/injection, schedule: Q01DX009 (ip), vehicle: other 93 % of control

CC(=O)OCCC/C(=C\c1ccc(C)cc1)[N+](=O)[O-]
inactive: dose: 100.0 mg/kg/injection, schedule: Q01DX001 (ip), vehicle: carboxymethylcellulose (CMC) 88 % of control | dose: 200.0 mg/kg/injection, schedule: Q01DX001 (ip), vehicle: carboxymethylcellulose (CMC) 88 % of control | dose: 400.0 mg/kg/injection, schedule: Q01DX001 (ip), vehicle: carboxymethylcellulose (CMC) 88 % of control

CC(C)CCCC(C)C1CCC2C3CC(=O)OC45CC4CCC5(C)C3CCC12C (stereo not drawn)
inactive: dose: 100.0 mg/kg/injection, schedule: Q01DX001 (ip), vehicle: acetone 94 % of control | dose: 100.0 mg/kg/injection, schedule: Q01DX009 (ip), vehicle: acetone 89 % of control | dose: 200.0 mg/kg/injection, schedule: Q01DX001 (ip), vehicle: acetone 89 % of control | dose: 200.0 mg/kg/injection, schedule: Q01DX009 (ip), vehicle: acetone 91 % of control | dose: 400.0 mg/kg/injection, schedule: Q01DX001 (ip), vehicle: acetone 91 % of control | dose: 400.0 mg/kg/injection, schedule: Q01DX009 (ip), vehicle: acetone 90 % of control

CCOC(=O)NN(C(=O)OCC)c1c(NNC(C)=O)nc(N)[nH]c1=O
inactive: [2] 99 % of control | [3] 92 % of control | [7] 99 % of control
